Laboratory results published in patent EP0120613A1, “Penem derivatives and precursors” (BEECHAM GROUP PLC, priority 1983, dated 1984).
Values belong to the compound of their own block, whether it stands above or below them.

Assays:
[1] = system: Staphylococci Russell; experiment: Antibacterial activity of alkylidene-penems (MIC); assay type: cell-based; settings: compound alone
[2] = system: Staphylococci Oxford; experiment: Antibacterial activity of alkylidene-penems (MIC); assay type: cell-based; settings: compound alone
[3] = system: range of resistant strains; experiment: MIC of Example 1b alone, microtitre technique (Table 3); assay type: cell-based; settings: Ex 1b alone; strains of Table 3
[4] = system: Kleb aerogenes; experiment: Effect of alkylidene-penems on the MIC of amoxycillin; assay type: cell-based, Klebsiella aerogenes; settings: Amoxycillin alone
[5] = system: S Aureus Russell; experiment: as above; assay type: cell-based; settings: Amoxycillin alone
[6] = system: E. coli JT39 (RTEM); experiment: as above; assay type: cell-based; settings: Amoxycillin alone
[7] = system: Ps.aeruginosa Charlier; experiment: MIC of broad spectrum cephalosporins with Example 1b, microtitre technique; assay type: cell-based
[8] = system: S.marcescens V697; experiment: as above; assay type: cell-based
[9] = system: C.freundii T562; experiment: as above; assay type: cell-based
[10] = system: E.cloacae Dokt 5; experiment: as above; assay type: cell-based
[11] = system: E.cloacae 4508; experiment: as above; assay type: cell-based
[12] = system: C.freundii 423; experiment: as above; assay type: cell-based
[13] = system: Ps.aeruginosa Badia IR; experiment: as above; assay type: cell-based
[14] = system: S.marcescens HCN 3956; experiment: as above; assay type: cell-based
[15] = system: E.cloacae P383; experiment: as above; assay type: cell-based
[16] = system: E.aerogenes 53; experiment: as above; assay type: cell-based
[17] = system: E.cloacae V692/80; experiment: as above; assay type: cell-based
[18] = system: E.aerogenes P99; experiment: as above; assay type: cell-based
[19] = system: M.morganii 978; experiment: as above; assay type: cell-based
[20] = system: C.freundii T1739; experiment: as above; assay type: cell-based
[21] = system: E.cloacae 159/167; experiment: as above; assay type: cell-based
[22] = system: E.aerogenes 55; experiment: as above; assay type: cell-based
[23] = system: E.coli JT410; experiment: Effect of alkylidene-penems on the MIC of cephaloridine; assay type: cell-based; settings: Cephaloridine alone

MIC [1]: 10.0 mg/L
MIC [2]: 5.0 mg/L
SMILES: CCSC1=C(C(=O)O)N2C(=O)/C(=C/c3ccco3)C2S1 (racemic) [Example 2b, (5RS) Sodium 2-Eth^ylthio - (Z)-6-furfurylidenepenem-3-carboxylate]

MIC [1]: 12.5 mg/L
MIC [2]: 12.5 mg/L
SMILES: O=C(O)C1=C(SCCO)SC2/C(=C\c3ccco3)C(=O)N12 (racemic) [Example 3b, (5RS) Sodium (Z)-6-Furfurylidene-2-(2-hydroxyethylthio) penem-3-carboxylate]

MIC [1]: 50 mg/L
MIC [2]: 100 mg/L
SMILES: O=C(O)C1=CSC2/C(=C\c3cccs3)C(=O)N12 (racemic) [Example 7b, (5RS) Sodium (Z)-6-(2-thienyl)methylenepenem-3-carboxylate]

MIC [1]: 12.5 mg/L
MIC [2]: 50 mg/L
SMILES: O=C(O)C1=CSC2/C(=C\c3ccsc3)C(=O)N12 (racemic) [Example 8b, (5RS) Sodium (Z)-6-(3-thienyl)methylenepenem-3-carboxylate]

MIC [1]: 125 mg/L
MIC [2]: 62 mg/L
SMILES: O=C(O)C1=CSC2/C(=C/c3ccco3)C(=O)N12 (racemic) [Example 9b, (5RS) Sodium (E)-6-Furfurylidenepenem-3-carboxylate]

MIC [1]: 50 mg/L
MIC [2]: 50 mg/L
SMILES: O=C(O)C1=CSC2/C(=C\c3ccc(Br)o3)C(=O)N12 (racemic) [Example 11b, (5RS) Sodium (Z)-6-(5-Bromofurfurylidene)penem-3-carboxylate]

MIC [1]: 50 mg/L
MIC [2]: 100 mg/L
SMILES: O=C(O)C1=CSC2/C(=C/c3ccoc3)C(=O)N12 (racemic) [Example 12b, (5RS) Sodium (E)-6-(3-Furylmethylene)penem-3-carboxylate]

Second part, the compound before the results:

SMILES: O=C(O)C1=CSC2/C(=C\c3ccco3)C(=O)N12 (racemic) [Example 1b, (5 RS) Sodium (Z) -6- Furfurylidenepenem - 3 - carboxylate]
MIC [1]: 16.0 mg/L
MIC [2]: 16.0 mg/L
MIC [3]: > 80 mg/L

SMILES: CCSC1=C(C(=O)O)N2C(=O)/C(=C/c3ccc(COC(C)=O)o3)C2S1 (racemic) [Example 5b, (SRS) Sodium (z)-6-(5-Acetoxymethylfurfurylidene)-2-ethylthiopenem-3-carboxylate]
MIC [1]: 12.5 mg/L
MIC [2]: 3.1 mg/L

SMILES: CC1(C)S[C@@H]2[C@H](NC(=O)[C@H](N)c3ccc(O)cc3)C(=O)N2[C@H]1C(=O)O [Amoxycillin]
MIC (µg/ml) of antibiotic [4]: 500 µg/mL
MIC (µg/ml) of antibiotic [5]: 500 µg/mL
MIC (µg/ml) of antibiotic [6]: 2000 µg/mL

SMILES: CO/N=C(\C(=O)N[C@@H]1C(=O)N2C(C(=O)O)=C(COC(C)=O)CS[C@H]12)c1csc(N)n1 [Cefotaxime]
MIC Cephalosporin ([7]; Cefotaxime alone): >80 mg/L
MIC Cephalosporin ([8]; Cefotaxime alone): >80 mg/L
MIC Cephalosporin ([9]; Cefotaxime alone): 40 mg/L
MIC Cephalosporin ([10]; Cefotaxime alone): >80 mg/L
MIC Cephalosporin ([11]; Cefotaxime alone): >80 mg/L
MIC Cephalosporin ([12]; Cefotaxime alone): 40 mg/L
MIC Cephalosporin ([13]; Cefotaxime alone): >80 mg/L
MIC Cephalosporin ([14]; Cefotaxime alone): 80 mg/L
MIC Cephalosporin ([15]; Cefotaxime alone): >80 mg/L
MIC Cephalosporin ([16]; Cefotaxime alone): >80 mg/L
MIC Cephalosporin ([17]; Cefotaxime alone): >80 mg/L
MIC Cephalosporin ([18]; Cefotaxime alone): >80 mg/L
MIC Cephalosporin ([19]; Cefotaxime alone): >80 mg/L
MIC Cephalosporin ([20]; Cefotaxime alone): 40 mg/L
MIC Cephalosporin ([21]; Cefotaxime alone): >80 mg/L
MIC Cephalosporin ([22]; Cefotaxime alone): 80 mg/L

SMILES: CC(C)(O/N=C(\C(=O)N[C@@H]1C(=O)N2C(C(=O)[O-])=C(C[n+]3ccccc3)CS[C@H]12)c1csc(N)n1)C(=O)O [Ceftazidine]
MIC Cephalosporin ([7]; Ceftazidine alone): 80 mg/L
MIC Cephalosporin ([8]; Ceftazidine alone): 80 mg/L
MIC Cephalosporin ([9]; Ceftazidine alone): 80 mg/L
MIC Cephalosporin ([10]; Ceftazidine alone): >80 mg/L
MIC Cephalosporin ([11]; Ceftazidine alone): >80 mg/L
MIC Cephalosporin ([12]; Ceftazidine alone): 80 mg/L
MIC Cephalosporin ([13]; Ceftazidine alone): >80 mg/L
MIC Cephalosporin ([14]; Ceftazidine alone): 5 mg/L
MIC Cephalosporin ([15]; Ceftazidine alone): >80 mg/L
MIC Cephalosporin ([16]; Ceftazidine alone): >80 mg/L
MIC Cephalosporin ([17]; Ceftazidine alone): >80 mg/L
MIC Cephalosporin ([18]; Ceftazidine alone): 80 mg/L
MIC Cephalosporin ([19]; Ceftazidine alone): 2.5 mg/L
MIC Cephalosporin ([20]; Ceftazidine alone): 80 mg/L
MIC Cephalosporin ([21]; Ceftazidine alone): >80 mg/L
MIC Cephalosporin ([22]; Ceftazidine alone): 80 mg/L

SMILES: O=C(Cc1cccs1)N[C@@H]1C(=O)N2C(C(=O)[O-])=C(C[n+]3ccccc3)CS[C@H]12 [Cephaloridine]
MIC (µg/ml) of antibiotic [23]: 62 to 125 µg/mL
